Where two headings read alike, the source gives them in different places. No end group written: not given here.
How the values were obtained:
[1] = tested on: S. sobrinus OMZ176, S. mutans 10449, or S. sanguis Ny101 as sensitive indicators; experiment: Mutacin assay: spot test of 2-fold dilutions, bacteriocin units (BU); type: cell-based; conditions: bacteriocin units per mg total protein, at stages of purification
Source text: The isolated antimicrobial mutacin polypeptides of the invention are generally characterized as having substantial bacteriocidal activity. As used herein the term “substantial bacteriocidal activity” describes significant mutacin-directed bacterial killing, as measured by any one of a variety of assays. Bacteriocidal activity may be advantageously examined and quantified by the deferred antagonism technique on trypticase soy-yeast agar (TSAY) using S. sobrinus OMZ176 or S. sanguis Ny101 as sensitive indicators (Parrot, et al., 1990). A unit of bacteriocidal activity (BU), present in liquid culture, is described as the lowest titer yielding a clear lytic-like zone of inhibition having clear edges and greater than 10 mm in diameter. Chikindas et al. describes arbitrary units (AU) of activity, which are essentially identical to bacteriocidal activity units. […]
Mutacin production was detected by deferred antagonism technique on trypticase soy-yeast agar (TSAY) using S. sobrinus OMZ176, S. mutans 10449, or S. sanguis Ny101 as sensitive indicators (Parrot, et al., 1990). Mutacin present in liquid culture was quantified by spotting […] of 2-fold dilutions of mutacin in phosphate buffered saline (PBS) onto the surface of TSAY overlaid with indicator strain as described. […]

[2] = single substitution of Ile for Glu at position 4, versus unmodified subtilin; cited from earlier work
[3] = type: physicochemical
Source text: (§1) The mutacins of the present invention have an apparent Mr of about 2,500 Da as determined by high performance liquid chromatography using a size-exclusion column. This is a useful defining parameter which may be determined using the routinely employed technique of column chromatography. However, the highly purified mutacins may be found to have a slightly different exact molecular weights, depending on the technique used, such as the molecular weight of 3,244.64±1.15 Da determined by ion spray mass spectroscopy for the T8-derived mutacin as determined from the m/z values, wherein z is equal to 2, 3, or 4 for m / z values 1623, 1083 and 812, respectively (see FIG. 4). Furthermore, the mutacin is thermostable, as measured by, e.g., incubating an agar plug at 100° C. for 30 minutes and quantitating bacteriocidal activity. The mutacin is stable over a pH range of 4-10, as measured by incubating the purified mutacin for 24 hours in appropriate 0.1 M buffers, e.g., such as acetate, phosphate or glycine buffers, at room temperature, and tested for bacteriocidal activity.
(§2) Mutacin was sensitive to trypsin. After 10 min incubation with the protease, no activity in sample was detected. Control samples without trypsin retained their full activity under identical conditions. Mutacin was thermostable as analyzed by residual activity after incubation at 80° C. for 30 min, and by incubating at 100° C. in loading buffer.

Streptococcus pyogenes = experiment: Deferred antagonism assay on trypticase soy-yeast agar plates; type: cell-based; parameters: key: S, sensitive (zone radius >2 mm); SS, zone radius >S; conditions: zone of inhibition
[4] = Isoelectric point (electrophoretic mobility / isoelectric focusing); type: physicochemical; conditions: based on electrophoretic mobility
Clostridium sporogenes = experiment: Deferred antagonism assay on trypticase soy-yeast agar plates; type: cell-based; conditions: Clostridium sporogenes (ATCC 19606); zone of inhibition
Streptococcus pneumoniae = experiment: as above; type: cell-based; parameters: key: S, sensitive (zone radius >2 mm); SS, zone radius >S; conditions: zone of inhibition
trypsin = experiment: Sensitivity to trypsin (residual mutacin activity); type: physicochemical
Procedure: Sensitivity to trypsin (Sigma Chemical Co., St. Louis, Mo.) was determined according to the manufacturer's recommendation by incubating purified mutacin (4096 BU) in 50 ml of 50 mM sodium phosphate buffer pH 7.5 with trypsin (2 mg) at room temperature. Samples were analyzed for residual mutacin activity at various time intervals.
as §2

Streptococcus mutans 130 = experiment: Deferred antagonism assay on trypticase soy-yeast agar plates; type: cell-based; conditions: zone of inhibition
Streptococcus faecium = experiment: as above; type: cell-based; conditions: zone of inhibition
Streptococcus mutans WT = experiment: as above; type: cell-based; conditions: zone of inhibition
Procedure: (§3) Mutacin production was detected by deferred antagonism technique on trypticase soy-yeast agar (TSAY) using S. sobrinus OMZ176, S. mutans 10449, or S. sanguis Ny101 as sensitive indicators (Parrot, et al., 1990). Mutacin present in liquid culture was quantified by spotting […] of 2-fold dilutions of mutacin in phosphate buffered saline (PBS) onto the surface of TSAY overlaid with indicator strain as described. Spots were allowed to dry for 1 h, then the plates were incubated anaerobically for 24 h. The lowest titer yielding a zone of inhibition having clear edges was defined as one bacteriocin unit (BU).
(§4) Biological activity may also be measured by overlaying thin layer chromatography or SDS-PAGE gels with an indicator strain.

Streptococcus sanguis = experiment: as above; type: cell-based; conditions: zone of inhibition
Procedure: as §3, §4

[5] = type: physicochemical; remark: listed apart in the source
Source text: as §1
Purified mutacin was mixed with different 0.1 M buffers in range pH 4-11 (sodium acetate pH 4-6; sodium phosphate pH 7-8; glycine-NaOH pH 8-11). After one or 24 h incubation at room temperature, residual mutacin activity was assayed using the spot test described above. […]

Streptococcus rattus = experiment: Deferred antagonism assay on trypticase soy-yeast agar plates; type: cell-based; conditions: zone of inhibition
[6] = tested on: Streptococcus faecalis 78.4; experiment: as above; type: cell-based; conditions: zone of inhibition
Mycobacterium phlei = experiment: as above; type: cell-based; conditions: zone of inhibition
Staphylococcus aureus = experiment: as above; type: cell-based; parameters: key: S, sensitive (zone radius >2 mm); SS, zone radius >S; conditions: zone of inhibition
Streptococcus mutans 159 = experiment: as above; type: cell-based; conditions: zone of inhibition
Streptococcus lactis = experiment: as above; type: cell-based; conditions: zone of inhibition
Actinomyces viscosus = experiment: as above; type: cell-based; conditions: zone of inhibition
Bacillus subtilis 1687 = experiment: as above; type: cell-based; conditions: zone of inhibition
[7] = tested on: Streptococcus mutans GS-5; experiment: as above; type: cell-based; conditions: zone of inhibition
Streptococcus mitis = experiment: as above; type: cell-based; conditions: zone of inhibition
Streptococcus salivarius = experiment: as above; type: cell-based; conditions: zone of inhibition

Water precipitate from 8M urea: final preparation of mutacin, solubilized in 8 M urea and precipitated with water; over 90% pure (NRWWQGVVPTVSYECRMNSWQHVFTCC; cysteine pairing not given here; also: lanthionine-containing lantibiotic, lanthionines not placed; UniProt O54329 27-53, looked up)
Spec. activity [1]: 150,187 BU/mg

C=C1NC(=O)CC[C@@H](C(=O)O)NC(=O)[C@H](NC(=O)[C@H](CCCCN)NC(=O)[C@@H](N)Cc2c[nH]c3ccccc23)CSC[C@@H](C(=O)N[C@@H]2C(=O)N3CCC[C@H]3C(=O)NCC(=O)N[C@H](C(=O)N[C@H](C(=O)N[C@@H]3C(=O)NCC(=O)N[C@@H](C)C(=O)N[C@@H](CC(C)C)C(=O)N[C@@H](CCC(N)=O)C(=O)N/C(=C/C)C(=O)N[C@H](C(=O)N[C@@H](Cc4ccccc4)C(=O)N[C@@H](CC(C)C)C(=O)N[C@@H](CCC(N)=O)C(=O)N[C@@H]4C(=O)N[C@@H](CC(C)C)C(=O)N[C@H]5C(=O)N[C@@H](CSC4C)C(=O)NC(=O)[C@H](CC(N)=O)N[C@H](C(=O)N[C@@H](CCCCN)C(=O)N[C@H](C(=O)NC(=C)C(=O)N[C@@H](CCCCN)C(=O)O)[C@@H](C)CC)CSC5C)CSC3C)C(C)C)CSC2C)N[C@@H](CC(C)C)C(=O)NC1=O (stereo partly shown) [subtilin]
increase of the biological half-life [2]: 57 fold

Mutacin: lanthionine-containing polypeptide antibiotic (lantibiotic) purified from Streptococcus mutans T8 or UA96; N-terminus Asn Arg Trp Trp Gln Gly Val Val (NRWWQGVVPTVSYECRMNSWQHVFTCC; cysteine pairing not given here; also: lanthionine-containing lantibiotic, lanthionines not placed; UniProt O54329 27-53, looked up)
Temperature (thermostable) [3]: thermostable > 100 °C
thermostability, residual activity after incubation [3]: thermostable
Temperature (thermostable) ([3]; listed as mutacin): up to 100 °C
Sensitivity (Streptococcus pyogenes): SS
pI (isoelectric point) [4]: ≧8.4 (based on electrophoretic
Sensitivity (Clostridium sporogenes): S (S, sensitive (zone radius >2 mm))
Sensitivity (Streptococcus pneumoniae): SS
Trypsin (sensitivity) (trypsin): sensitive
residual mutacin activity after incubation with trypsin (trypsin; 10 min, 4096 BU mutacin, trypsin 2 mg, 50 mM sodium phosphate pH 7.5, room temperature): no activity
Sensitivity (Streptococcus mutans 130): S (S, sensitive (zone radius >2 mm))
Sensitivity (Streptococcus faecium): S (S, sensitive (zone radius >2 mm))
Sensitivity (Streptococcus mutans WT): S (S, sensitive (zone radius >2 mm))
Sensitivity (Streptococcus sanguis): S (S, sensitive (zone radius >2 mm))
pH (stable range) ([5]; listed as mutacin): 4-10
residual activity after incubation at pH 11 ([5]; pH 11, 0.1 M glycine-NaOH, one or 24 h at room temperature, spot test): about 50%
Sensitivity (Streptococcus rattus): S (S, sensitive (zone radius >2 mm))
Sensitivity [6]: S (S, sensitive (zone radius >2 mm))
Sensitivity (Mycobacterium phlei): S (S, sensitive (zone radius >2 mm))
Sensitivity (Staphylococcus aureus): SS
Sensitivity (Streptococcus mutans 159): S (S, sensitive (zone radius >2 mm))
Sensitivity (Streptococcus lactis): S (S, sensitive (zone radius >2 mm))
Sensitivity (Actinomyces viscosus): S (S, sensitive (zone radius >2 mm))
Sensitivity (Bacillus subtilis 1687): S (S, sensitive (zone radius >2 mm))
Sensitivity [7]: S (S, sensitive (zone radius >2 mm))
Sensitivity (Streptococcus mitis): S (S, sensitive (zone radius >2 mm))
Sensitivity (Streptococcus salivarius): S (S, sensitive (zone radius >2 mm))

Reference: patent US6521596B1, “Lanthionine antibiotic compositions and method” (priority 1994, dated 2003)
